Test results: patent publication US8961949B2, “Polymer-metal complex composite having MRI contrast ability and MRI contrasting and/or antitumor composition using the same” (Japan Science and Technology Agency, priority 2008, dated 2015)
Entries after “also recorded” stand apart in the source; their conditions may differ.

Tests used:
[1] = system: human pancreatic cancer cells (BxPC3); assay: in vivo MRI in orthotopic transplantation model of BxPC3; parameters: species or system Nude mice; conditions: equal amounts of micelles and free Gd-DTPA
Description: Nude mice (female, 6 weeks of age) were laparotomized under inhalation anesthesia, injected with 0.1 ml of human pancreatic cancer cells (BxPC3) under the serous membrane of the pancreas and then kept for 1 month to prepare an orthotopic transplantation model. MRI was imaged with a 4.7 Tesla Superconductive Magnet Unit (Varian, Palo Alto, Calif.) VXR-MRI Console under the following imaging conditions: repetition time (TR): 500 ms, echo time (TE): 15 ms, field of view (FOV): 32 mm×32 mm, matrix size: 256×256, slice thickness: 2 mm to obtain Spin Echo T1w images. The mice were injected under 5% isoflurane inhalation anesthesia and maintained under 1.2% isoflurane anesthesia during imaging. […] Imaging was performed every 5 minutes during the first 1 hour after injection via the tail vein, then every 15 minutes for 4 hours. Moreover, an equal amount of free Gd-DTPA serving as a control was also injected via the tail vein and imaged in the same manner. The resulting images were analyzed by Mathematica (Wolfram Research Inc.) and Excel (Microsoft, Inc.).

[2] = blood at 1, 4, 8 and 24 hours after tail vein injection of 0.2 ml
Description: After collection, the blood was rapidly mixed with heparin to prevent coagulation, and then centrifuged to collect plasma only. The collected plasma was mixed with 90% HNO3, heated and dried, dissolved in 5N HCl, and then diluted appropriately, followed by ICP-MS to determine Gd and Pt contents.

[3] = system: human pancreatic cancer cells (BxPC3); assay: antitumor effect (tumor size) on subcutaneous BxPC3 tumor; assay type: in vivo, Nude mice; conditions: Pt 8 mg/ml

SMILES	contrast enhancement / intensity in tumor [1]	residual drug content in plasma / retention in blood [2]	antitumor effect (tumor size), words ([3]; 0.2 ml i.v. on day 0, 2 and 4)	antitumor effect (tumor size), words ([3]; 0.2 ml i.v. on day 0, 2 and 4, listed as Oxaliplatin)
O=C([O-])CN(CCN(CC(=O)[O-])CC(=O)O)CCN(CC(=O)[O-])CC(=O)O.[Gd+3] [Gd-DTPA, gadolinium diethylene triamine pentaacetic acid]	little contrast enhancement; also recorded: little increase in intensity	rapidly disappear from plasma		
O=C1[O][Pt]2([NH][C@@H]3CCCC[C@H]3[NH]2)[O]C1=O [oxaliplatin]		rapidly disappear from plasma	substantially the same tendency as the control	little therapeutic effect
